# Measured values from paper PMC7370100, “In Vitro Assessment of the Genotoxic Hazard of Novel Hydroxamic Acid- and Benzamide-Type Histone Deacetylase Inhibitors (HDACi)” (International Journal of Molecular Sciences, 2020).
# Columns and labels:
# XPA-deficient cells = experiment: Viability of XPA-deficient versus proficient fibroblasts (Alamar blue); type: cell-based, human; conditions: 72 h, in words
# Procedure: Figure 7 Sensitivity of nucleotide excision repair (NER) defective cells to hydroxamic acid- and benzamide-type HDACi. Viability of wild-type human fibroblasts and fibroblasts defective in nucleotide excision repair (NER) pathways (i.e., global genome nucleotide excision repair (GG-NER) or transcription-coupled nucleotide excision repair (TC-NER)) due to a defect in Xeroderma pigmentosum group A protein (XPA) or Cockayne syndrome protein B (CSB), respectively, was analyzed 72 h after the addition of HDACi by the Alamar blue assay, as described in Methods. The DNA intrastrand cross-linking agent cisplatin was used for control. Data shown are the mean ± SD from three independent experiments (n = 3) each performed in triplicate (N = 3); ns, not significant; *, p ≤ 0.05; **, p ≤ 0.01 as compared to the corresponding untreated controls (Student´s t-test).
# V79 hamster lung cells, which are recommended in the OECD toxicology guidelines for hazard identification (i.e., cytotoxicity and genotoxicity) of chemicals, were purchased from the German Collection of Microorganisms and Cell Cultures (DSMZ, Braunschweig, Germany). They were cultured in Dulbecco´s modified Eagle medium and Ham´s F12 medium (DMEM/F12) (PromoCell, Heidelberg, Germany) containing 10% fetal calf serum at 37 °C in a humidified atmosphere containing 5% CO2. VC8 hamster cells were defective in DNA double-strand break (DSB) repair by homologous recombination (HR) due to the lack of functional BRCA2 protein [69, 70]. VC8 cells were provided by B. Kaina (Institute of Toxicology, Mainz, Germany). Nucleotide excision repair defective XPA and CSB deficient cells were also provided by B. Kaina and were described before. […]
# Cell viability was determined using the Alamar blue assay, which reflected the mitochondrial activity. […] Afterwards, the Neutral red that was taken up by the cells was extracted (50% ethanol/1% of acetic acid, 15 min at room temperature (RT)) and absorbance (540 nm) was measured. […] Approximate IC50 (~IC50, see Supplementary Table S1) were calculated from the corresponding dose-response curves.
# V79 cells [1] = experiment: Nuclear γH2AX foci and pan-staining (immunocytochemistry); type: cell-based, hamster; conditions: for > 5 < 30 Foci [%] / Pan-Stained [%] / ≤ 5 Foci [%] (cells with γH2AX foci) / ≥ 30 Foci [%] / formation of nuclear γH2AX foci: 24 h; for > 5 < 30 Foci [%] / Pan-Stained [%] / ≤ 5 Foci [%] (cells with γH2AX foci) / ≥ 30 Foci [%] / gH2AX Foci / gH2AX Pan-Stain: V79; for formation of nuclear γH2AX foci: V79, in words; for gH2AX Foci / gH2AX Pan-Stain: summary grade; for gH2AX Foci: key: −: no effect; 0: weak effect; +: moderate effect; ++: strong effect; +++: very strong effect as compared to untreated controls; for gH2AX Pan-Stain: key: −: no effect; 0: weak effect; +: moderate effect; ++: strong effect; +++: very strong effect as compared to untreated controls
# Procedure: (§1) The frequency of nuclear foci formed by S139 phosphorylated H2AX (γH2AX foci), which is a surrogate marker of DNA damage, especially DNA double-strand breaks (DSBs), was assayed by immunocytochemistry-based analysis. […] The appearance of nuclear 53BP1 foci, which is another marker of DSBs, was also determined by immunocytochemistry. Cells were fixed with 4% formaldehyde in phosphate-buffered saline (PBS) (MERCK, Darmstadt, Germany) (15 min, RT) followed by incubation with ice-cold methanol (≥20 min, −20 °C). After blocking (1 h, RT, blocking solution: 5% BSA (MERCK, Darmstadt, Germany) in PBS/0.3% Triton X-100 (Sigma, Steinheim, Germany)), incubation with γH2AX antibody and 53BP1 antibody was performed (1:500, overnight, 4 °C). After incubation with the secondary fluorescence-labeled antibody (1:500, 1 h, RT, in the dark), cells were mounted in Vectashield (Vector Laboratories (Burlingame, CA, USA)) containing DAPI. The number of nuclear γH2AX and 53BP1 foci was scored (Olympus BX43 fluorescence microscope). Only nuclei with distinct foci were evaluated and γH2AX pan-stained nuclei were excluded from the foci analyses. Data are shown as the mean ± SEM of three independent experiments with ≥50 nuclei analyzed per experimental condition.
# [2] = design: method as in PMID 15897550; conditions: humans; read-out: maximal blood serum concentration (Cmax); cited from earlier work
# V79 cells [3] = experiment: Phospho-ATM (pATM) foci formation; type: cell-based, hamster; conditions: 6 to 24 h, V79, in words
# Text: Figure 4 Cell cycle-related formation of DNA damage by hydroxamic acid- and benzamide-type HDACi. […] (B) For positive control, ionizing radiation (IR) was used. Shown are representative pictures of γH2AX, 53BP1, and pATM stained cells. […] Data shown are the mean ± SD from three independent experiments (n = 3); *, p ≤ 0.05; **, p ≤ 0.01 as compared to the untreated control, which was set to 1.0 (Student´s t-test).
# V79 cells [4] = experiment: Nuclear 53BP1 foci formation; type: cell-based, hamster; conditions: 6 to 24 h, V79, in words
# Procedure: as §1
Structure (SMILES),sensitivity of XPA-deficient versus XPA proficient cells (XPA-deficient cells),> 5 < 30 Foci [%] (V79 cells [1]; 2 µM),Pan-Stained [%] (V79 cells [1]; 2 µM),≤ 5 Foci [%] (cells with γH2AX foci) (V79 cells [1]; 2 µM),≥ 30 Foci [%] (V79 cells [1]; 2 µM),> 5 < 30 Foci [%] (V79 cells [1]; 10 µM),Pan-Stained [%] (V79 cells [1]; 10 µM),≤ 5 Foci [%] (cells with γH2AX foci) (V79 cells [1]; 10 µM),≥ 30 Foci [%] (V79 cells [1]; 10 µM),> 5 < 30 Foci [%] (V79 cells [1]; 50 µM),Pan-Stained [%] (V79 cells [1]; 50 µM),≤ 5 Foci [%] (cells with γH2AX foci) (V79 cells [1]; 50 µM),≥ 30 Foci [%] (V79 cells [1]; 50 µM),formation of nuclear γH2AX foci (V79 cells [1]),gH2AX Foci (V79 cells [1]),gH2AX Pan-Stain (V79 cells [1]),> 5 < 30 Foci [%] (V79 cells [1]; 100 µM),Pan-Stained [%] (V79 cells [1]; 100 µM),≤ 5 Foci [%] (cells with γH2AX foci) (V79 cells [1]; 100 µM),≥ 30 Foci [%] (V79 cells [1]; 100 µM),other results
CN(C)c1ccc(C(=O)N(CC(=O)NCc2ccccc2)Cc2ccc(C(=O)NO)cc2)cc1 [DDK137],XPA-deficient cells are even more resistant,38.5%,0.0%,60.8%,0.7%,40.1%,0.0%,56.4%,3.5%,36.8%,14.1%,31.3%,17.8%,stimulate the formation of γH2AX foci only at a high dose of 50 µM,+,+,,,,,
"Nc1ccccc1NC(=O)c1ccc(CNC(=O)OCc2cccnc2)cc1 [Entinostat, entinostat, reference compound]",,,,,,43.6%,0.4%,45.2%,10.8%,39.4%,3.2%,45.3%,12.2%,relatively low number of γH2AX foci,+,+,47.2%,4.6%,41.7%,6.5%,
Nc1ccc(F)cc1NC(=O)c1ccc(CONC(=O)C=Cc2cccnc2)cc1 [MPK77],,,,,,49.9%,0.0%,49.6%,0.6%,41.5%,0.0%,58.6%,0.0%,relatively low number of γH2AX foci,+,0,47.9%,10.2%,35.5%,6.5%,
"O=C(CCCCCCC(=O)Nc1ccccc1)NO [Vorinostat, vorinostat, reference compound]",XPA-deficient cells are even more resistant,54.7%,0.0%,39.3%,6.0%,18.5%,3.2%,75.9%,2.4%,34.2%,26.7%,23.6%,15.6%,,+,++,,,,,Cmax [2]: ~1000 nM; formation of phospho-ATM (pATM) foci (V79 cells [3]): did not cause the formation of phospho-ATM (pATM) foci; formation of nuclear 53BP1 foci (V79 cells [4]): failed to cause the formation of nuclear 53BP1 foci
